Assay results taken from US20260226029A1, “1-(1-Oxo-1,2-Dihydrophthalazin-6-yl)Cycloalkyl-1-Carboxamide Derivatives as MTA-Cooperative Inhibitors of PRMT5” (BeOne Medicines I GmbH, priority 2023, published 2026).

Columns and labels:
HCT116-mock-RNA-KO = assay: Compounds cell killing in HCT116 isogenic pair (CellTiter-Glo, 6 days), mock-KO (MTAP wildtype) cells; format: cell-based; conditions: Homo sapiens, HCT-116, 144 h, Cell Titer-Glo, 0-10 μM
Text: (§1) HCT116 cell line (ATCC, CCL-247) was isolated from the colon of an adult with colon cancer. It has a mutation in codon 13 of the ras proto-oncogene and can be used as a positive control for PCR assays of mutation in this codon. HCT116-MTAP-KO was knocked-out-MTAP-gene based HCT116, and a single clone was passed for this assay. HCT116-mock-RNA-KO was knocked-out-mock-gene based HCT116 with MTAP wildtype genotype. The base medium for HCT116 isogenic pair is RPMI 1640, HEPES (Gibco, 22400105). To make the complete growth medium, add the following components to the base medium: fetal bovine serum to a final concentration of 10% (Gibco, 10099-141C). The cell line was grown in a humidified 5% CO2 atmosphere at 37° C. and regularly tested for the presence of mycoplasma with MycoAlert™ PLUS Mycoplasma Detection Kit (Lonza, LT07-710).
(§2) • Seed HCT116-mock-RNA-KO (4E2/well) or HCT116-MTAP-KO (4E2/well) cells into a 96-well plate (Greiner: 655090), 100 µL/well. • Incubate at 37° C., 5% CO2, overnight. • Add 50 μL fresh growth-medium containing serial dilution of compounds for a final compound concentration of 0-10 μM to each well. • Incubate at 37° C., 5% CO2, 6 days. • The cell viability detected by Cell Titer-Glo (Promega, G7573). Add 70 μL of CellTiter-Glo® reagent in each well. • Incubate at room temperature for 10 minutes to stabilize luminescent signal. • Analyze with Microplate Reader (TECAN, SPARK) and fit IC50 using Prism® 9.

HCT116-MTAP-KO = assay: Compounds cell killing in HCT116 isogenic pair (CellTiter-Glo, 6 days), MTAP-KO cells; format: cell-based; conditions: Homo sapiens, HCT-116, 144 h, Cell Titer-Glo, 0-10 μM
Text: as §1, §2

Compound	IC50 (HCT116-mock-RNA-KO) [nM]	IC50 (HCT116-MTAP-KO) [nM]
C[C@H]1CCC[C@@H](c2ccc(C(F)(F)F)cn2)N1C(=O)C1(c2ccc3c(=O)[nH]nc(CN)c3c2)CC1 (racemic) [Example 24, (±)-4-(aminomethyl)-6-(1-((2S,6S)-2-methyl-6-(5-(trifluoromethyl)pyridin-2-yl)piperidine-1-carbonyl)cyclopropyl)phthalazin-1(2H)-one]	> 10000	5260
NCc1n[nH]c(=O)c2ccc(C3(C(=O)N(Cc4ccc(C(F)(F)F)cn4)C4CCCc5cccnc54)CC3)cc12 (stereo not drawn) [Example 1, 1-(4-(aminomethyl)-1-oxo-1,2-dihydrophthalazin-6-yl)-N-(5,6,7,8-tetrahydroquinolin-8-yl)-N-((5-(trifluoromethyl)pyridin-2-yl)methyl)cyclopropane-1-carboxamide]	> 10000	98
NCc1n[nH]c(=O)c2ccc(C3(C(=O)N(Cc4ccc(C(F)(F)F)cn4)[C@@H]4CCCc5cccnc54)CC3)cc12 [Example 2A, (R)-1-(4-(aminomethyl)-1-oxo-1,2-dihydrophthalazin-6-yl)-N-(5,6,7,8-tetrahydroquinolin-8-yl)-N-((5-(trifluoromethyl)pyridin-2-yl)methyl)cyclopropane-1-carboxamide]	3680	98
NCc1n[nH]c(=O)c2ccc(C3(C(=O)N(Cc4ccc(C(F)(F)F)cn4)[C@H]4CCCc5cccnc54)CC3)cc12 [Example 2B, (S)-1-(4-(aminomethyl)-1-oxo-1,2-dihydrophthalazin-6-yl)-N-(5,6,7,8-tetrahydroquinolin-8-yl)-N-((5-(trifluoromethyl)pyridin-2-yl)methyl)cyclopropane-1-carboxamide]	> 10000	> 10000
NCc1n[nH]c(=O)c2ccc(C3(C(=O)N(Cc4ccc(-c5c(Cl)cccc5Cl)cn4)C4CCCc5cccnc54)CC3)cc12 (stereo not drawn) [Example 3, 1-(4-(aminomethyl)-1-oxo-1,2-dihydrophthalazin-6-yl)-N-((5-(2,6-dichlorophenyl)pyridin-2-yl)methyl)-N-(5,6,7,8-tetrahydroquinolin-8-yl)cyclopropane-1-carboxamide]	3870	57
NCc1n[nH]c(=O)c2ccc(C3(C(=O)N(Cc4ccc(-c5c(Cl)cccc5Cl)cn4)[C@@H]4CCCc5cccnc54)CC3)cc12 [Example 4A, (R)-1-(4-(aminomethyl)-1-oxo-1,2-dihydrophthalazin-6-yl)-N-((5-(2,6-dichlorophenyl)pyridin-2-yl)methyl)-N-(5,6,7,8-tetrahydroquinolin-8-yl)cyclopropane-1-carboxamide]	2950	85
NCc1n[nH]c(=O)c2ccc(C3(C(=O)N(Cc4ccc(-c5c(Cl)cccc5Cl)cn4)[C@H]4CCCc5cccnc54)CC3)cc12 [Example 4B, (S)-1-(4-(aminomethyl)-1-oxo-1,2-dihydrophthalazin-6-yl)-N-((5-(2,6-dichlorophenyl)pyridin-2-yl)methyl)-N-(5,6,7,8-tetrahydroquinolin-8-yl)cyclopropane-1-carboxamide]	5910	1540
CC1(C)COc2nc(CN(C(=O)C3(c4ccc5c(=O)[nH]nc(CN)c5c4)CC3)C3CCCc4cccnc43)ccc21 (stereo not drawn) [Example 5, 1-(4-(aminomethyl)-1-oxo-1,2-dihydrophthalazin-6-yl)-N-((3,3-dimethyl-2,3-dihydrofuro[2,3-b]pyridin-6-yl)methyl)-N-(5,6,7,8-tetrahydroquinolin-8-yl)cyclopropane-1-carboxamide]	> 10000	707
CC(C)(O)c1ccc(CN(C(=O)C2(c3ccc4c(=O)[nH]nc(CN)c4c3)CC2)C2CCCc3cccnc32)nc1 (stereo not drawn) [Example 6, 1-(4-(aminomethyl)-1-oxo-1,2-dihydrophthalazin-6-yl)-N-((5-(2-hydroxypropan-2-yl)pyridin-2-yl)methyl)-N-(5,6,7,8-tetrahydroquinolin-8-yl)cyclopropane-1-carboxamide]	> 10000	2560
Cc1cc(CN(C(=O)C2(c3ccc4c(=O)[nH]nc(CN)c4c3)CC2)C2CCCc3cccnc32)ncc1C(F)(F)F (stereo not drawn) [Example 7, 1-(4-(aminomethyl)-1-oxo-1,2-dihydrophthalazin-6-yl)-N-((4-methyl-5-(trifluoromethyl)pyridin-2-yl)methyl)-N-(5,6,7,8-tetrahydroquinolin-8-yl)cyclopropane-1-carboxamide]	> 10000	285
Cc1nc(CN(C(=O)C2(c3ccc4c(=O)[nH]nc(CN)c4c3)CC2)C2CCCc3cccnc32)ccc1-c1ccccc1 (stereo not drawn) [Example 8, 1-(4-(aminomethyl)-1-oxo-1,2-dihydrophthalazin-6-yl)-N-((6-methyl-5-phenylpyridin-2-yl)methyl)-N-(5,6,7,8-tetrahydroquinolin-8-yl)cyclopropane-1-carboxamide]	5250	255
NCc1n[nH]c(=O)c2ccc(C3(C(=O)N(Cc4ccc(C(F)(F)F)cn4)Cc4c(F)cccc4Cl)CC3)cc12 [Example 9, 1-(4-(aminomethyl)-1-oxo-1,2-dihydrophthalazin-6-yl)-N-(2-chloro-6-fluorobenzyl)-N-((5-(trifluoromethyl)pyridin-2-yl)methyl)cyclopropane-1-carboxamide]	4670	222
NCc1n[nH]c(=O)c2ccc(C3(C(=O)N(Cc4ccc(-c5ccccc5)cn4)C4CCCc5cccnc54)CC3)cc12 (stereo not drawn) [Example 10, 1-(4-(aminomethyl)-1-oxo-1,2-dihydrophthalazin-6-yl)-N-((5-phenylpyridin-2-yl)methyl)-N-(5,6,7,8-tetrahydroquinolin-8-yl)cyclopropane-1-carboxamide]	7230	18
NCc1n[nH]c(=O)c2ccc(C3(C(=O)N(Cc4ccc(-c5ccccc5)cn4)[C@@H]4CCCc5cccnc54)CC3)cc12 [Example 11A, (R)-1-(4-(aminomethyl)-1-oxo-1,2-dihydrophthalazin-6-yl)-N-((5-phenylpyridin-2-yl)methyl)-N-(5,6,7,8-tetrahydroquinolin-8-yl)cyclopropane-1-carboxamide]	2790	57
NCc1n[nH]c(=O)c2ccc(C3(C(=O)N(Cc4ccc(-c5ccccc5)cn4)[C@H]4CCCc5cccnc54)CC3)cc12 [Example 11B, (S)-1-(4-(aminomethyl)-1-oxo-1,2-dihydrophthalazin-6-yl)-N-((5-phenylpyridin-2-yl)methyl)-N-(5,6,7,8-tetrahydroquinolin-8-yl)cyclopropane-1-carboxamide]	> 10000	2090
Cc1nc(CN(C(=O)C2(c3ccc4c(=O)[nH]nc(CN)c4c3)CC2)C2CCCc3cccnc32)sc1I (stereo not drawn) [Example 12, 1-(4-(aminomethyl)-1-oxo-1,2-dihydrophthalazin-6-yl)-N-((5-iodo-4-methylthiazol-2-yl)methyl)-N-(5,6,7,8-tetrahydroquinolin-8-yl)cyclopropane-1-carboxamide]	6010	482
N#Cc1cccc(Cl)c1-c1ccc(CN(C(=O)C2(c3ccc4c(=O)[nH]nc(CN)c4c3)CC2)C2CCCc3cccnc32)nc1 (stereo not drawn) [Example 13, 1-(4-(aminomethyl)-1-oxo-1,2-dihydrophthalazin-6-yl)-N-((5-(2-chloro-6-cyanophenyl)pyridin-2-yl)methyl)-N-(5,6,7,8-tetrahydroquinolin-8-yl)cyclopropane-1-carboxamide]	3950	62
CC(C)(C)c1ccc(CN(C(=O)C2(c3ccc4c(=O)[nH]nc(CN)c4c3)CC2)C2CCCc3cccnc32)nc1 (stereo not drawn) [Example 14, 1-(4-(aminomethyl)-1-oxo-1,2-dihydrophthalazin-6-yl)-N-((5-(tert-butyl)pyridin-2-yl)methyl)-N-(5,6,7,8-tetrahydroquinolin-8-yl)cyclopropane-1-carboxamide]	> 10000	378
NCc1n[nH]c(=O)c2ccc(C3(C(=O)N(Cc4ncc(Br)c5ccccc45)C4CCCc5cccnc54)CC3)cc12 (stereo not drawn) [Example 15, 1-(4-(aminomethyl)-1-oxo-1,2-dihydrophthalazin-6-yl)-N-((4-bromoisoquinolin-1-yl)methyl)-N-(5,6,7,8-tetrahydroquinolin-8-yl)cyclopropane-1-carboxamide]	5080	942
Cn1nccc1-c1ccc(CN(C(=O)C2(c3ccc4c(=O)[nH]nc(CN)c4c3)CC2)C2CCCc3cccnc32)nc1 (stereo not drawn) [Example 16, 1-(4-(aminomethyl)-1-oxo-1,2-dihydrophthalazin-6-yl)-N-((5-(1-methyl-1H-pyrazol-5-yl)pyridin-2-yl)methyl)-N-(5,6,7,8-tetrahydroquinolin-8-yl)cyclopropane-1-carboxamide]	> 10000	699
COc1ccnc2c1CCCC2N(Cc1ccc(C(F)(F)F)cn1)C(=O)C1(c2ccc3c(=O)[nH]nc(CN)c3c2)CC1 (stereo not drawn) [Example 17, 1-(4-(aminomethyl)-1-oxo-1,2-dihydrophthalazin-6-yl)-N-(4-methoxy-5,6,7,8-tetrahydroquinolin-8-yl)-N-((5-(trifluoromethyl)pyridin-2-yl)methyl)cyclopropane-1-carboxamide]	> 10000	253
